Results on 3 compounds are retold here after ChEMBL document CHEMBL1131527, “Estradiol-mimetic probes. Preparation of 17 alpha-(6-aminohexynyl)estradiol biotin, fluorescein and acridinium conjugates” (Bioorg Med Chem Lett, 1998).

This assay can be described thus: Equilibrium dissociation constant of the compound. Type of assay: ADME.
On to `C[C@]12CC[C@@H]3c4ccc(O)cc4CC[C@H]3[C@@H]1CC[C@@]2(O)C#CCCCCNC(=O)c1ccc2c(c1)C(=O)OC21c2ccc(O)cc2Oc2cc(O)ccc21`, for which the dissociation constant Kd was determined as 97.3 nM.

Turning to `Cc1ccc(S(=O)(=O)N(CCCC(=O)NCCCCC#C[C@]2(O)CC[C@H]3[C@@H]4CCc5cc(O)ccc5[C@H]4CC[C@@]32C)C(=O)c2c3ccccc3[n+](CCCS(=O)(=O)[O-])c3ccccc23)cc1`, the dissociation constant (Kd) stood at 198 nM.

For `C[C@]12CC[C@@H]3c4ccc(O)cc4CC[C@H]3[C@@H]1CC[C@@]2(O)C#CCCCCNC(=O)CCCCC1SC[C@@H]2NC(=O)N[C@H]12` (stereo partly drawn), the Kd stood at 141 nM.

Usually Kd stands for the constant that tells how readily two partners part at equilibrium. A high value points to lower affinity.
